Reference: patent US11274332B2, “Methods of administering 3,4-diaminopyridine” (SERB SA, priority 2011, dated 2022)
Values joined by “and” are separate entries in the source; they are usually repeats but may differ in a detail not shown here. Equal entries are not always repeated.

Assay: Food-effect crossover study, adverse events after single 20 mg amifampridine phosphate in healthy subjects (Examples 10, 11)
Type: in vivo
Protocol: This was a randomized, open-label, 2-treatment, 2-period crossover study with 44 completed subjects to assess the safety, tolerability, and the effect of food on the relative bioavailability of a single dose of amifampridine phosphate.
Safety was evaluated for all subjects who take at least one dose of 3,4-DAP. Safety was evaluated by recording the incidence of adverse events (AEs), physical examination, vital signs, concomitant medications, clinical laboratory assessments, and 12-lead electrocardiogram (ECG).
Analysis for the following safety parameters was carried out on the Safety Population: AEs which included all AEs, AEs by severity, drug-related AEs, deaths, SAEs, AEs leading to study discontinuation, and most frequent AEs, standard clinical laboratory tests, vital signs, ECG measurements, routine physical examinations, and prior and concomitant medications. The cut-off for frequency of AEs reported was determined based on the data. No formal statistical testing was performed for the safety analyses; only descriptive statistics were provided. Appropriate descriptive statistics for the safety data were determined using SAS Version 9.2.
AEs were coded according to the Medical Dictionary for Regulatory Activities (MedDRA; Version 13.0). […] The occurrence of AEs was assessed continuously from the time the subject signed the VID and consent. The reporting period for non-serious AEs was from the first dose to the final study visit. The investigator determined the severity of each event and the relationship of an AE to the IP and recorded it on the source documents and AE CRF. The nature, time of onset, duration, severity, and relationship to study drug was documented, including documentation of investigator assessment and review. All events were assessed to determine if the AE was serious.
The Investigator determined the severity of each event and the event was recorded on the source documents and AE CRF. A coding of “mild” meant there was no limitation of usual activities, “moderate” meant there was some limitation of usual activities, “severe” meant there was an inability to carry out usual activities.
The reporting period for AEs that met the criteria of an SAE began from the time of signing the VID and consent form through follow-up or early termination. […] Clinical Laboratory Assessments

Nc1ccncc1N.O=P(O)(O)O [amifampridine phosphate, 3,4-diaminopyridine phosphate]
Diarrhoea, drug-related AE: % of subjects (Fed N=46): (0%) [0]
Diarrhoea, drug-related AE: events (Fed N=46): (0%) [0]
Diarrhoea, drug-related AE: subjects (Fed N=46): 0
Discontinued due to adverse events: % of subjects (Fed N=46): 2%
Discontinued due to adverse events: events (Fed N=46): 1
Discontinued due to adverse events: subjects (Fed N=46): 1
Dizziness, drug-related AE: % of subjects (Fed N=46): 4%
Dizziness, drug-related AE: events (Fed N=46): 2
Dizziness, drug-related AE: subjects (Fed N=46): 2
Dysgeusia, drug-related AE: % of subjects (Fed N=46): 4%
Dysgeusia, drug-related AE: events (Fed N=46): 2
Dysgeusia, drug-related AE: subjects (Fed N=46): 2
Fatigue, drug-related AE: % of subjects (Fed N=46): 7%
Fatigue, drug-related AE: events (Fed N=46): 3
Fatigue, drug-related AE: subjects (Fed N=46): 3
Feeling Hot, drug-related AE: % of subjects (Fed N=46): (0%) [0]
Feeling Hot, drug-related AE: events (Fed N=46): (0%) [0]
Feeling Hot, drug-related AE: subjects (Fed N=46): 0
Flushing, drug-related AE: % of subjects (Fed N=46): 2%
Flushing, drug-related AE: events (Fed N=46): 1
Flushing, drug-related AE: subjects (Fed N=46): 1
Gastrointestinal Disorders Total, drug-related AE: % of subjects (Fed N=46): 4%
Gastrointestinal Disorders Total, drug-related AE: events (Fed N=46): 2
Gastrointestinal Disorders Total, drug-related AE: subjects (Fed N=46): 2
General Disorders and Administration Site Conditions Total, drug-related AE: % of subjects (Fed N=46): 7%
General Disorders and Administration Site Conditions Total, drug-related AE: events (Fed N=46): 3
General Disorders and Administration Site Conditions Total, drug-related AE: subjects (Fed N=46): 3
Headache, drug-related AE: % of subjects (Fed N=46): 2%
Headache, drug-related AE: events (Fed N=46): 1
Headache, drug-related AE: subjects (Fed N=46): 1
Hypoaesthesia Facial, drug-related AE: % of subjects (Fed N=46): (0%) [0]
Hypoaesthesia Facial, drug-related AE: events (Fed N=46): (0%) [0]
Hypoaesthesia Facial, drug-related AE: subjects (Fed N=46): 0
Hypoaesthesia Oral, drug-related AE: % of subjects (Fed N=46): 7%
Hypoaesthesia Oral, drug-related AE: events (Fed N=46): 3
Hypoaesthesia Oral, drug-related AE: subjects (Fed N=46): 3
Hypoaesthesia, drug-related AE: % of subjects (Fed N=46): (0%) [0]
Hypoaesthesia, drug-related AE: events (Fed N=46): (0%) [0]
Hypoaesthesia, drug-related AE: subjects (Fed N=46): 0
Nausea, drug-related AE: % of subjects (Fed N=46): 2%
Nausea, drug-related AE: events (Fed N=46): 1
Nausea, drug-related AE: subjects (Fed N=46): 1
Nervous System Disorders Total, drug-related AE: % of subjects (Fed N=46): 37%
Nervous System Disorders Total, drug-related AE: events (Fed N=46): 31
Nervous System Disorders Total, drug-related AE: subjects (Fed N=46): 17
Paraesthesia Oral, drug-related AE: % of subjects (Fed N=46): 28%
Paraesthesia Oral, drug-related AE: events (Fed N=46): 15
Paraesthesia Oral, drug-related AE: subjects (Fed N=46): 13
Paraesthesia, drug-related AE: % of subjects (Fed N=46): 15%
Paraesthesia, drug-related AE: events (Fed N=46): 8
Paraesthesia, drug-related AE: subjects (Fed N=46): 7
Possibly or probably related AEs, Mild: % of subjects (Fed N=46): 46%
Possibly or probably related AEs, Mild: events (Fed N=46): 37
Possibly or probably related AEs, Mild: subjects (Fed N=46): 21
Possibly or probably related AEs, Moderate: % of subjects (Fed N=46): (0%) [0]
Possibly or probably related AEs, Moderate: events (Fed N=46): (0%) [0]
Possibly or probably related AEs, Moderate: subjects (Fed N=46): 0
Possibly or probably related AEs, Severe: % of subjects (Fed N=46): (0%) [0]
Possibly or probably related AEs, Severe: events (Fed N=46): (0%) [0]
Possibly or probably related AEs, Severe: subjects (Fed N=46): 0
Possibly or probably related AEs, Total: % of subjects (Fed N=46): 46%
Possibly or probably related AEs, Total: events (Fed N=46): 37
Possibly or probably related AEs, Total: subjects (Fed N=46): 21
Serious adverse events: % of subjects (Fed N=46): (0%) [0]
Serious adverse events: events (Fed N=46): (0%) [0]
Serious adverse events: subjects (Fed N=46): 0
Skin and Subcutaneous Tissue Disorders Total, drug-related AE: % of subjects (Fed N=46): (0%) [0]
Skin and Subcutaneous Tissue Disorders Total, drug-related AE: events (Fed N=46): (0%) [0]
Skin and Subcutaneous Tissue Disorders Total, drug-related AE: subjects (Fed N=46): 0
Vascular Disorders Total, drug-related AE: % of subjects (Fed N=46): 2%
Vascular Disorders Total, drug-related AE: events (Fed N=46): 1
Vascular Disorders Total, drug-related AE: subjects (Fed N=46): 1
All treatment emergent AEs, Total: subjects (Fed N=46, phosphate): 24 and 23
Abdominal Pain Upper, drug-related AE: % of subjects (Female N=16): 6%
Abdominal Pain Upper, drug-related AE: events (Female N=16): 1
Abdominal Pain Upper, drug-related AE: subjects (Female N=16): 1
Abdominal Pain, drug-related AE: % of subjects (Female N=16): 13%
Abdominal Pain, drug-related AE: events (Female N=16): 2
Abdominal Pain, drug-related AE: subjects (Female N=16): 2
Abdominal Tenderness, drug-related AE: % of subjects (Female N=16): 6%
Abdominal Tenderness, drug-related AE: events (Female N=16): 1
Abdominal Tenderness, drug-related AE: subjects (Female N=16): 1
Acne, drug-related AE: % of subjects (Female N=16): (0%) [0]
Acne, drug-related AE: events (Female N=16): (0%) [0]
Acne, drug-related AE: subjects (Female N=16): 0
All treatment emergent AEs, Mild: % of subjects (Female N=16): 75%
All treatment emergent AEs, Mild: events (Female N=16): 41
All treatment emergent AEs, Mild: subjects (Female N=16): 12
All treatment emergent AEs, Moderate: % of subjects (Female N=16): 13%
All treatment emergent AEs, Moderate: events (Female N=16): 2
All treatment emergent AEs, Moderate: subjects (Female N=16): 2
All treatment emergent AEs, Severe: % of subjects (Female N=16): (0%) [0]
All treatment emergent AEs, Severe: events (Female N=16): (0%) [0]
All treatment emergent AEs, Severe: subjects (Female N=16): 0
All treatment emergent AEs, Total: events (Female N=16): 43
All treatment emergent AEs, Total: subjects (Female N=16): 12
Constipation, drug-related AE: % of subjects (Female N=16): 6%
Constipation, drug-related AE: events (Female N=16): 1
Constipation, drug-related AE: subjects (Female N=16): 1
Diarrhoea, drug-related AE: % of subjects (Female N=16): 6%
Diarrhoea, drug-related AE: events (Female N=16): 1
Diarrhoea, drug-related AE: subjects (Female N=16): 1
Discontinued due to adverse events: % of subjects (Female N=16): (0%) [0]
Discontinued due to adverse events: events (Female N=16): (0%) [0]
Discontinued due to adverse events: subjects (Female N=16): 0
Dizziness, drug-related AE: % of subjects (Female N=16): 25%
Dizziness, drug-related AE: events (Female N=16): 5
Dizziness, drug-related AE: subjects (Female N=16): 4
Dysgeusia, drug-related AE: % of subjects (Female N=16): (0%) [0]
Dysgeusia, drug-related AE: events (Female N=16): (0%) [0]
Dysgeusia, drug-related AE: subjects (Female N=16): 0
Fatigue, drug-related AE: % of subjects (Female N=16): 13%
Fatigue, drug-related AE: events (Female N=16): 2
Fatigue, drug-related AE: subjects (Female N=16): 2
Feeling Hot, drug-related AE: % of subjects (Female N=16): (0%) [0]
Feeling Hot, drug-related AE: events (Female N=16): (0%) [0]
Feeling Hot, drug-related AE: subjects (Female N=16): 0
Flushing, drug-related AE: % of subjects (Female N=16): 6%
Flushing, drug-related AE: events (Female N=16): 1
Flushing, drug-related AE: subjects (Female N=16): 1
Gastrointestinal Disorders Total, drug-related AE: % of subjects (Female N=16): 31%
Gastrointestinal Disorders Total, drug-related AE: events (Female N=16): 8
Gastrointestinal Disorders Total, drug-related AE: subjects (Female N=16): 5
General Disorders and Administration Site Conditions Total, drug-related AE: % of subjects (Female N=16): 13%
